Measured values taken from paper PMC6212778, “Site-specific amino acid substitution in dodecameric peptides determines the stability and unfolding of c-MYC quadruplex promoting apoptosis in cancer cells” (Nucleic Acids Research, 2018).

Key:
[1] = tested on: MCF-7 cells; experiment: Western blot / real time PCR of apoptotic markers and signalling proteins; type: cell-based, human; details: MCF-7, 5 and 10 μM KR12C, 24 h
Protocol: To observe the effect of KR12C in c-MYC protein expression, and to decipher the peptide-driven signaling pathway to trigger apoptosis within cancer cells, we have performed an array of Western Blot experiments. MCF-7 cells are seeded at a density of 7 × 10^5 cells per well into 60 mm dishes and allowed to attach overnight. Next day cells are serum starved for 18 h. At the end of 18 h fresh medium supplemented with 2% FBS +1% antibiotic and anti-mycotic is added. Then cells are treated with 5 μM and 10 μM KR12C. Recombinant VEGF is added at a concentration of 200 ng/ml of medium either alone or in combination with 10 μM KR12C. Cells are harvested after 24 hrs of treatment.
Whole cell lysate is prepared using the Cell Lysis Buffer (Cell Signalling Technologies) according to the manufacturer's protocol supplemented with Phenylmethylsulfonyl fluoride (PMSF) (Merck) and Protease Inhibitory Cocktail (PIC) (Merck). 40 μg of protein is separated using sodium dodecyl sulfate polyacrylamide gel electrophoresis (SDS-PAGE). (4% stacking gel and 12–15% resolving gel). Samples are transferred to polyvinylidene fluoride (PVDF) membranes (Immobilon-P, EMD Millipore). Membranes were blocked using 5% milk in Tris-buffered saline (TBS) with Tween 20 (Amresco) for 45 min at room temperature. Membranes are then incubated overnight at 4°C with the following antibodies: anti-c-Myc (Rabbit polyclonal, 1:500 dil. Cell Signalling Technology Inc.), Mouse anti-Bcl2 (Mouse monoclonal, 1:250 dil. Santacruz Biotechnology Inc.), anti E2F1, anti VEGF-A, anti-P53, anti-APAF1, anti-Caspase 8, anti-PARP (Abcam), anti-β-actin (Mouse monoclonal, 1:10 000 dil. Santacruz Biotechnology Inc.). Next membranes are incubated with peroxidase conjugated anti-rabbit IgG raised in Goat (Sigma, 1:8000 dil.) and peroxidase conjugated anti-mouse IgG raised in Rabbit (Sigma, 1:10 000 dil.) for 2 h at room temperature. Target proteins are visualised on membranes using Clarity TM Western ECL substrate (Bio-rad) and images are captured using ChemiDoc MP system with Image Lab™ software for PC version 6.0 (Bio-rad).

[2] = tested on: VEGF-A (Pu22) quadruplex; experiment: ITC of peptides with VEGF-A quadruplex; type: binding, human; details: potassium phosphate buffer pH 7.0
Protocol: (§1) Thermodynamic attributes of the interaction profiles between peptides and putative quadruplex sequences are analysed by ITC using iTC200 Microcalorimeter at 25°C. Synthetic peptides (FK13, KR12A, KR12B, KR12C, KR12D and KR12E) are diluted to 20 μM in 10 mM Potassium phosphate buffer (10 mM K2HPO4 + 10 mM KH2PO4) containing 0.1 M KCl (pH 7.0). Syringe is filled with 500 μM quadruplex sequences present in the upstream promoter regions of c-MYC (Pu27, Pu19, and Myc22), BCL-2 (Pu30), VEGF-A (Pu22), KRAS (Pu32) oncogenes, and telomere (Tel26) dissolved into the same buffer. We also carried out the experiment for KR12C and Pu27 using MCF-7 nuclear extract as the solvent to mimic the cellular microenvironment and impart macromolecular crowding during binding events. Same concentration of oligonucleotides is injected into the identical buffer or in nuclear extract without peptides to normalize the heat of dilution of peptide-quadruplex association to that of the control before curve-fitting. […] The heat of reaction per injection (μcal/s) is determined by integration of the peak areas using in-built Origin 7.0 software that provides the best-fit values of enthalpy (ΔH) and entropy (ΔS) of binding, the binding stoichiometry (n), and dissociation constant (Kd) (Supplementary Tables S5(a), S5(b) and S5(c)). […]

[3] = molecular target: c-MYC quadruplex (Pu27); experiment: ITC of KR12C with Pu27 under macromolecular crowding (MCF-7 nuclear extract); type: binding, human
Protocol: as §1

## N – KRIVKLIKKWLR – C [KR12C]
[1]; western blot
  expression of p53, cleaved PARP, caspase 8 and APAF-1: significant upregulation
[1]; western blot and real time PCR
  BCL-2 expression at transcription and translation level: suppressed
  VEGF-A and E2F-1 expression: significantly suppressed
[2]
  binding affinity with VEGF-A quadruplex: very poor or no binding affinity
[3]; 25°C, MCF-7 nuclear extract as solvent, single-site model, background subtracted
  Kd: 901 nM
[3]; macromolecular crowding
  fold increase in binding affinity for Pu27 in MCF-7 nuclear extract versus potassium phosphate buffer: ~8 fold
